The results in this text go back to publication PMC8716824, “Design, Synthesis and Anti-Lung Cancer Evaluation of 1, 2, 3-Triazole Tethered Dihydroartemisinin-Isatin Hybrids” (Frontiers in Pharmacology, 2021).

One data set relates to A549 lung cancer cells. The data set is described as follows: MTT antiproliferative assay, A549. Format: cell-based. The conditions noted are these: Homo sapiens. Here is the method:
(§1) The antiproliferative activity of 1,2,3-triazole tethered dihydroartemisinin-isatin hybrids 8a-c and 9a-k against A549, multidrug-resistant A549/DOX and A549/DDP lung cancer cell lines as well as cytotoxicity towards mouse embryonic fibroblast cells NIH/3T3 were assessed by 3-(4,5-dimethylthiazol-2-yl)-2,5-diphenyltetrazolium bromide (MTT) assay, and half maximal inhibitory concentration (IC50) values were listed in Table 2. A549, A549/DOX, and A549/DDP lung cancer cells (2 × 10^3) were plated in each well of a 96-well plate and were allowed to adhere and spread for 24 h. The 1,2,3-triazole tethered dihydroartemisinin-isatin hybrids 8a-c and 9a-k were added to a final concentration of 100 μM, and the cells were cultured for 24 h at 37°C. 3-(4,5-dimethyl-2-thiazolyl)-2,5-diphenyltetrazolium bromide (MTT) solution (10 µL) was added to each well, and the cultures were incubated for an additional 4 h. A further 100 µL of […] was added and incubation continued overnight. The absorbance at 540 nm was determined in each well with a 96-well plate reader. The growth of the treated cells was compared with that of untreated cells.

The test system of data set [1] is doxorubicin-resistant A549 (A549/DOX) lung cancer cells. Description: MTT antiproliferative assay, A549/DOX. The settings on record: Homo sapiens. Format: cell-based. The procedure:
as §1

Data set [2] has as its system cisplatin-resistant A549 (A549/DDP) lung cancer cells. The data set is described as follows: MTT antiproliferative assay, A549/DDP. Format: cell-based. The conditions noted are these: A549/DDP. The procedure:
as §1

In data set [3] the test system is mouse embryonic fibroblast cells NIH/3T3. Description: MTT cytotoxicity assay, NIH/3T3. Format: cell-based. The conditions noted are these: for SI (selectivity index): IC50(NIH/3T3)/IC50(A549); for IC50: Mus musculus, NIH3T3, cytotoxicity, NIH/3T3 cells, MTT (called CC50 in method). The procedure:
The antiproliferative activity of 1,2,3-triazole tethered dihydroartemisinin-isatin hybrids 8a-c and 9a-k against A549, multidrug-resistant A549/DOX and A549/DDP lung cancer cell lines as well as cytotoxicity towards mouse embryonic fibroblast cells NIH/3T3 were assessed by 3-(4,5-dimethylthiazol-2-yl)-2,5-diphenyltetrazolium bromide (MTT) assay, and half maximal inhibitory concentration (IC50) values were listed in Table 2.
The cytotoxicity (CC50) of the synthesized 1,2,3-triazole tethered dihydroartemisinin-isatin hybrids 8a-c and 9a-k were examined by the MTT assay in mouse embryonic fibroblast cells NIH/3T3. The compounds were dissolved in DMSO with concentrations from 1,024 to 1 μg/ml. The NIH/3T3 cells were maintained in culture medium at 37°C under 5% CO2 atmosphere. Cells were seeded in 96-well plates (1 × 10^4 cell per well) and allowed to recover for 24 h. After 72 h of exposure, cells were harvested and cell viability was assessed by MTT assay. The CC50 values were calculated by Bliss analy.

Data set [4] can be described thus: Stability in mouse liver microsomes. Format: in vitro ADME. The procedure: (§2) The metabolic stability of selected hybrids 8a,c and 9i was assessed in mouse and human microsomes, and the results were listed in Table 3.
The nature of data set [5]: Stability in human liver microsomes. The class given is in vitro ADME. The procedure: as §2
Data set [6] can be described thus: Pharmacokinetics in CD-1 mice. The settings on record: mouse, plasma, 30 mg/kg, single intravenous administration; for clearance: read-out: Cl (clearance rate) (converted); for bioavailability: read-out: F (bioavailability); for Tmax: read-out: tmax (peak time) (converted). The class given is in vivo. Here is the method: The pharmacokinetic behavior of hybrids 8a,c was determined in CD-1 mice model by single intravenous administration with dose of 30 mg/kg.
CD-1 mice (20–25 g) were used in the pharmacokinetic study, and each treatment group had 3 mice which were dosed with hybrids 8a,c suspension at 30 mg/kg by single intravenous administration. Compounds were suspended in 0.5% CMC for iv, and blood was collected from the jugular vein of each mouse at the following time points: 0.25, 0.5, 1, 2, 4, 6, 8 and 24 h after intravenous administration. Total area under the concentration time curve (AUC), the elimination half-time (t1/2), the peak concentration (Cmax) and the time to reach peak concentration (Tmax) of samples were determined directly from the experimental data using WinNonlin V6.2.1.

Data set [7] concerns A549, A549/DOX and A549/DDP lung cancer cell lines. Description: MTT antiproliferative assay, ranges pooled over lung cancer cell lines. The class given is cell-based. Here is the method:
as §1

The nature of data set [8]: Stability in mouse/human microsomes, pooled range. The class given is in vitro ADME. The procedure: as §2
Setting [9] is: Homo sapiens, range over A549 and A549/DOX, read-out: IC50, range over A549 and A549/DOX.
Setting [10] is: range over the three lung cancer cell lines, read-out: IC50, range over A549, A549/DOX and A549/DDP.

Read-outs that look alike come from different tables or passages of the source.

In the data set on A549 lung cancer cells, `C[C@@H]1CC[C@H]2[C@@H](C)C(OCc3cn(CCN4C(=O)C(=O)c5ccccc54)nn3)O[C@@H]3O[C@@]4(C)CC[C@@H]1[C@]32OO4` (stereo partly drawn) [8a, 1-(2-(4-((((3R,5aS,6R,8aS,9R,12R,12aR)-3,6,9-trimethyldecahydro-12H-3,12-epoxy[1,2]dioxepino[4,3-i]isochromen-10-yl)oxy)methyl)-1H-1,2,3-triazol-1-yl)ethyl)indoline-2,3-dione] had an IC50 of 8.32 µM. Moreover, in [1], the IC50 was 12.1 µM. Also, the IC50 in data set [2] was 10.7 µM. In data set [3], the “SI (selectivity index)” value is >12.0 and the IC50 was > 100 µM. The “Liver microsomes, Mouse” value in data set [4] was 77%. Moreover, in [5], the “Liver microsomes, Human” value was found to be 68%. Besides, in data set [6], the AUC amounted to 883 ng·h/mL, the Cmax was 6.4 µM, the half-life was 3.7 h and the clearance was 38.5 mL/min/kg. Further, in data set [6], the bioavailability was 35.6% and the Tmax was 0.2 h. Moreover, the IC50 in data set [7] (setting [9]) was in the range of 7.54 to 15.9 µM. For the same compound, the IC50 in [7] (setting [10]) lay in the range of 7.54 to 12.1 µM. Also, the “Liver microsomes, range over mouse and human” value in data set [8] was 68–83%.

As to `C[C@@H]1CC[C@H]2[C@@H](C)C(OCc3cn(CCN4C(=O)C(=NO)c5cc(F)ccc54)nn3)O[C@@H]3O[C@@]4(C)CC[C@@H]1[C@]32OO4` (stereo partly drawn) [9i, 5-fluoro-3-(hydroxyimino)-1-(2-(4-((((3R,5aS,6R,8aS,9R,12R,12aR)-3,6,9-trimethyldecahydro-12H-3,12-epoxy[1,2]dioxepino[4,3-i]isochromen-10-yl)oxy)methyl)-1H-1,2,3-triazol-1-yl)ethyl)indolin-2-one], the IC50 is 9.1 µM in the data set on A549 lung cancer cells; 15.9 µM in data set [1]; 14.3 µM in [2]; > 100 µM in [3]; 7.54 to 15.9 µM in [7] (setting [9]); 9.1 to 15.9 µM in data set [7] (setting [10]). For the same compound, in data set [3], the “SI (selectivity index)” value is >11.0. For the same compound, the “Liver microsomes, Mouse” value in data set [4] was determined as 46%. In addition, in [5], the “Liver microsomes, Human” value is listed as 60%.

`C[C@@H]1CC[C@H]2[C@@H](C)C(OCc3cn(CCN4C(=O)C(=O)c5cc(F)ccc54)nn3)O[C@@H]3O[C@@]4(C)CC[C@@H]1[C@]32OO4` (stereo partly drawn) [8c, 5-fluoro-1-(2-(4-((((3R,5aS,6R,8aS,9R,12R,12aR)-3,6,9-trimethyldecahydro-12H-3,12-epoxy[1,2]dioxepino[4,3-i]isochromen-10-yl)oxy)methyl)-1H-1,2,3-triazol-1-yl)ethyl)indoline-2,3-dione] returned an IC50 in the data set on A549 lung cancer cells of 7.54 µM. In data set [1], this compound came in with an IC50 of 9.89 µM. Besides, the IC50 in data set [2] amounted to 8.77 µM. Also, in data set [3], the “SI (selectivity index)” value is >13.2 and the IC50 is > 100 µM. Also, the “Liver microsomes, Mouse” value in data set [4] came to 71%. Besides, the “Liver microsomes, Human” value in [5] turned out to be 83%. Besides, in data set [6], the area under the curve (AUC) came to 654 ng·h/mL, the Cmax is 12.5 µM, the half-life is 4.2 h and the clearance is 52.7 mL/min/kg. Further, in data set [6], the bioavailability was determined as 27.5% and the time to peak (Tmax) was 0.2 h. For the same compound, in data set [7] (setting [9]), the IC50 lay in the range of 7.54 to 15.9 µM. Moreover, in data set [7] (setting [10]), the IC50 lay within 7.54 to 12.1 µM. In addition, in [8], the “Liver microsomes, range over mouse and human” value is on record as 68–83%.
